Experimental data as given in patent US20150174158A1, “[…] NITRIC OXIDE FOR TREATING RESPIRATORY DISEASES” (Advanced Inhalation Therapies (AIT) Ltd., priority 2012, published 2015).

How the values were obtained:
[1] = system: human respiratory syncytial virus (rgRSV30); experiment: RSV plaque assay after 30 min exposure to 160 ppm gNO; format: cell-based; details: single 30 min exposure to 160 ppm gNO; starting 500 PFU
Protocol: The efficacy of treating viral infection by respiratory syncytial virus by the methods presented herein was tested by exposure for 30 minutes of human respiratory syncytial virus (rgRSV30) to a gas mixture containing 160 ppm nitric oxide, using standard plaque assay as described hereinabove.
FIGS. 3A-D present the data obtained in the experiment using tissue culture samples harboring human rgRSV30, coupled to a green fluorescent protein, wherein the control experiment the samples were exposed to a ambient air (data not shown), and the tested samples having a starting viral level of 2000 PFU (FIG. 3A), 1000 PFU (FIG. 3B) and 500 PFU (FIG. 3C), were exposed to 160 ppm gNO for 30 minutes, whereas FIG. 3D presents a comparative bar plot comparing the control to test results.

[2] = Phase I open label safety study of intermittent 160 ppm gNO inhalation: adverse events, vital signs, oxygenation, NO2; format: in vivo, human
Description: 10 healthy adult volunteer subjects (5 males, 5 females), aged 20 to 62 years, were enrolled in the study after screening their medical history, a physical examination, pulmonary function tests and blood values. Exclusion criteria included individuals less than 19 years of age, pregnant females and unwilling to practice birth control during the study, diagnosed with pulmonary disease, epistaxis, hemoptysis, methemoglobinemia, organ transplant recipient or receiving antibiotic therapy.
(§1) After obtaining informed consent, treatment was initiated within 5 days of enrollment. Subjects were housed in a hospital ward and received 160 ppm gNO for 30 minutes every four hours (Q4h), five times a day, for five consecutive days by inhalation. Subjects returned for follow-up evaluations 3, 7 and 21 days after the final gNO administration. Subject safety was determined by monitoring vital signs, methemoglobin levels, lung function, blood chemistry, hematology, prothrombin time, inflammatory cytokine/chemokines levels and endothelial activation. These parameters were compared to baseline and at various time-points during and after gNO administration.
Subjects were administered gNO through a modified disposable mouthpiece to maximize mixing. Inspiration was spontaneously initiated by the subject from a conventional intermittent positive pressure breathing respirator (Mark-7, Carefusion, USA) in fixed flow mode delivering 48 liters per minute (LPM). Flows of gas were verified with a calibrated mass flow meter (TSI, USA). Gaseous nitric oxide (gNO, obtained at INOmax, Ikaria, USA) at a concentration of 800 ppm delivered at a flow of 12 LPM was titrated into a distal delivery port on the mouth piece connected to the respirator during inspiratory phase only (pressure switch). The Mark 7 respirator was supplied by an air/oxygen blender (Bird Sentry, Carefusion, USA) set to deliver 26% oxygen.
The levels of gNO, NO2, O2 and methemoglobin were monitored during the administration of gNO. […] Inspiratory NO, NO2 and O2 levels were continuously monitored by sampling from the mouthpiece sample port located about 6 millimeters from the mouth of the subject with an AeroNOx (Pulmonox, AB, Canada) NO, NO2 and O2 electrochemical analyzer. Delivery safety was determined by the number of occasions that NO2 exceeded 5 ppm, gNO exceeding 10% variation and O2 dropping below 20% during gNO administration. […]
General medical examinations were performed by a pulmonary physician on screening and on days 8, 12 and 26 to obtain oxygenation and vital sign measurements. […] Oxygenation was measured with a pulse oximeter (Rad 57, Masimo Corporation, USA) which was used according to manufacturer's guidelines to measure functional oxygen saturation of arterial hemoglobin (SpO2) and heart rate. These parameters were measured continuously during every gNO administration and for 3.5 hours after the first treatment of the day. Cardiovascular status was determined by monitoring heart rate, blood pressure, respiratory rate and temperature. Values were recorded prior to the start of each gNO administration, following a 5 minute rest. During treatments, vital signs (except temperature) were also performed 15 minutes after the start of the treatment and at the end of gNO administration and recorded. After the first treatment each day, vital signs were recorded at every 30 minutes until the start of the second gNO administration of the day.

methemoglobin (SpMet) = experiment: Phase I safety study: methemoglobin (SpMet) by pulse oximeter; format: in vivo, human
Protocol: as §1
The levels of gNO, NO2, O2 and methemoglobin were monitored during the administration of gNO. The target gas mixture was 160 ppm gNO with a nitrogen dioxide (NO2) level of less than 5 ppm and an oxygen (O2) level ranging from 21% to 25%. Inspiratory NO, NO2 and O2 levels were continuously monitored by sampling from the mouthpiece sample port located about 6 millimeters from the mouth of the subject with an AeroNOx (Pulmonox, AB, Canada) NO, NO2 and O2 electrochemical analyzer. Delivery safety was determined by the number of occasions that NO2 exceeded 5 ppm, gNO exceeding 10% variation and O2 dropping below 20% during gNO administration. A commercially available noninvasive pulse oximeter (Rad 57, Masimo Corporation, USA) was used to measure saturation levels at the periphery of methemoglobin (SpMet).
These parameters were measured continuously during every gNO administration course and for 3.5 hours after the first treatment of the day. Daily serum samples were collected and frozen at −80° C. and the serum […] level was measured using the Griess reagent.
FIGS. 4A-B present results of monitoring methemoglobin levels before, during and after inhalation of 160 ppm of gaseous nitric oxide by 10 healthy human individuals, undergone 5 gNO administration courses daily, each lasting 30 minutes, for 5 consecutive days, while methemoglobin levels were measured using a pulse oximeter, wherein FIG. 4A is a plot of methemoglobin levels by percents as a function of time as measured before (time point 0), during 250 individual 30 minutes gNO administration courses (time interval of 0 to 30 minutes), after the courses (time interval of 30 to 60 minutes) and at 120 minutes, 180 minutes and 240 minutes after gNO administration was discontinued, and FIG. 4B is a plot of methemoglobin levels by percents as a function of time as measured at the beginning and end of 30 minutes gNO administration courses given over the course of 5 days, and followed 8, 12 and 26 days after gNO administration was discontinued.

S. aureus (ATCC) = details: 200 ppm gNO; saline; cited from earlier work
Group B Streptococci = details: 200 ppm gNO; saline; cited from earlier work
[3] = system: P. aeruginosa and S. aureus; details: cited from earlier work
[4] = system: five planktonic species of methicillin resistant S. aureous (MRSA); details: 1,600 ppm hours of gNO; cited from earlier work
[5] = system: chronic, non-healing wound; details: topical 200 ppm gNO, within the first three days; cited from earlier work
[6] = continuous delivery of 80 ppm; cited from earlier work

[N]=O [gNO, nitric oxide]
viral viability [1]: substantially nullified
minor adverse events ([2]; 160 ppm gNO 30 min, 5 times a day, 5 days, 10 healthy adults): Three minor adverse events were reported
significant adverse events ([2]; 160 ppm gNO 30 min, 5 times a day, 5 days, 10 healthy adults, 250 administrations): no significant adverse events were observed
vital signs ([2]; during and after gNO administration, 160 ppm): remained within normal limits
lowest observed SpO2 ([2]; during or after 160 ppm gNO administration): 93%
mean NO2 level during the treatments ([2]; inspired gas at mouthpiece, 160 ppm gNO, 95% confidence level 2.17-2.47): 2.32 ppm
residual increase in SpMet at follow-up (methemoglobin (SpMet); 3, 7 and 21 days after final exposure): did not show any residual increase
time for SpMet to return to baseline (methemoglobin (SpMet); after 30 min 160 ppm gNO): 3.5 h
highest SpMet (methemoglobin (SpMet); end of the 30 minutes treatment, 160 ppm gNO, baseline 0.16 (SD=0.10)): 2.5%
accumulative effect on SpMet (methemoglobin (SpMet); five daily treatments for five consecutive days): no accumulative or lingering effect
average increase of SpMet (methemoglobin (SpMet); single 30 min treatment course, 160 ppm gNO, SD=0.08): 0.9%
LD100 (S. aureus (ATCC)): 4 h
Latent Period (S. aureus (ATCC)): 3 h
−2.5 Log10 (S. aureus (ATCC)): 3.3 hours
LD100 (Group B Streptococci): 2 h
Latent Period (Group B Streptococci): 1 h
−2.5 Log10 (Group B Streptococci): 1.5 hours
survival (downward bactericidal trend) ([3]; 50-160 ppm gNO vs medical air, agar plates): 5-10%
time required to achieve >90% reduction of colony formation ([3]; gNO greater than 120 ppm): 8 to 12 h
reduction of colony formation ([3]; levels of gNO greater than 120 ppm, agar plates): greater than 90%
population of planktonic MRSA strains [4]: A reduction in the population
biofilm presence [5]: no longer visibly present
NO2 level [6]: 2.6 ppm
